This passage reports T/C results from PubChem BioAssay AID228 (DTP/NCI, 2004).

“And” between values parts separate entries of the source, which are not always exact repeats. Identical values can stand only once. Results filed as inconclusive are left out.

This experiment relates to BDF1 mice, Friend leukemia sc, tumor weight T/C. The experiment is described as follows: NCI In Vivo Anticancer Drug Screen. Data for tumor model Friend Virus Leukemia (Solid) (subcutaneous) in B6D2F1 (BDF1) mice. To be noted: endpoint: mean tumor weight, higher = larger tumour. Here is the method:
The antitumor activity of compounds was measured in mice bearing transplantable tumors. Survival or tumor size were measured and the results are expressed as the measurement made in the treated group (T) divided by the measurement made in the vehicle treated control group (C). The tumor model used in this assay is Friend Virus Leukemia (Solid) (subcutaneous) in B6D2F1 (BDF1) mice

[1] abbreviates: dose: 20.0 mg/kg/injection, schedule: Q01DX011 (ip), vehicle: carboxymethylcellulose (CMC).
[2] abbreviates: dose: 40.0 mg/kg/injection, schedule: Q01DX011 (ip), vehicle: carboxymethylcellulose (CMC).
Where [3] appears, read: dose: 80.0 mg/kg/injection, schedule: Q01DX011 (ip), vehicle: carboxymethylcellulose (CMC).
Setting [4] is: dose: 125.0 mg/kg/injection, schedule: Q01DX011 (ip), vehicle: saline.
Where [5] appears, read: dose: 250.0 mg/kg/injection, schedule: Q01DX011 (ip), vehicle: saline.
[6] abbreviates: dose: 0.75 mg/kg/injection, schedule: Q01DX011 (ip), vehicle: saline.
[7] abbreviates: dose: 1.0 mg/kg/injection, schedule: Q01DX011 (ip), vehicle: carboxymethylcellulose (CMC).
The mark [8] stands for this setting: dose: 1.5 mg/kg/injection, schedule: Q01DX011 (ip), vehicle: saline.
Setting [9] is: dose: 4.0 mg/kg/injection, schedule: Q01DX011 (ip), vehicle: carboxymethylcellulose (CMC).
The mark [10] stands for this setting: dose: 8.0 mg/kg/injection, schedule: Q01DX011 (ip), vehicle: carboxymethylcellulose (CMC).
The mark [11] stands for this setting: dose: 6.0 mg/kg/injection, schedule: Q01DX011 (sc), vehicle: steriod suspending solution.
The mark [12] stands for this setting: dose: 12.0 mg/kg/injection, schedule: Q01DX011 (sc), vehicle: steriod suspending solution.
Where [13] appears, read: dose: 50.0 mg/kg/injection, schedule: Q01DX011 (sc), vehicle: steriod suspending solution.
Where [14] appears, read: dose: 100.0 mg/kg/injection, schedule: Q01DX011 (sc), vehicle: steriod suspending solution.

`CS(=O)(=O)OCC(=O)NCCNC(=O)COS(C)(=O)=O`: the T/C was 93 % of control under setting [1]; 110 % of control (dose: 31.0 mg/kg/injection, schedule: Q01DX011 (ip), vehicle: saline); 101 % of control under setting [2]; 108 % of control (dose: 62.0 mg/kg/injection, schedule: Q01DX011 (ip), vehicle: saline); 52 % of control under setting [3]; 89 % of control under setting [4]. Also, the T/C under setting [5] was 60 % of control.
With `CCCCCCCCCCCCCCCCC(C(=O)O)C(O)(CC(=O)O)C(=O)O` (stereo not given), the T/C was 107 % of control (dose: 19.0 mg/kg/injection, schedule: Q01DX011 (ip), vehicle: carboxymethylcellulose (CMC)); 100 % of control (dose: 37.5 mg/kg/injection, schedule: Q01DX011 (ip), vehicle: carboxymethylcellulose (CMC)); 35 % of control (dose: 75.0 mg/kg/injection, schedule: Q01DX011 (ip), vehicle: carboxymethylcellulose (CMC)).
For `COc1cc([C@@H]2c3cc4c(cc3[C@H](O)[C@H]3COC(=O)[C@H]23)OCO4)cc(OC)c1OC`, the T/C was 86 % of control (dose: 0.13 mg/kg/injection, schedule: Q01DX011 (ip), vehicle: carboxymethylcellulose (CMC)); 86 % of control (dose: 0.55 mg/kg/injection, schedule: Q01DX011 (ip), vehicle: carboxymethylcellulose (CMC)); 83 % of control (dose: 135.0 micrograms/kg/injection, schedule: Q01DX011 (ip), vehicle: carboxymethylcellulose (CMC)); 114 % of control (dose: 270.0 micrograms/kg/injection, schedule: Q01DX011 (ip), vehicle: carboxymethylcellulose (CMC)); 75 % of control (dose: 550.0 micrograms/kg/injection, schedule: Q01DX011 (ip), vehicle: carboxymethylcellulose (CMC)); 87 % of control (dose: 1100.0 micrograms/kg/injection, schedule: Q01DX011 (ip), vehicle: carboxymethylcellulose (CMC)).
For the compound `CCOc1ccc2nc(S(N)(=O)=O)sc2c1`, the T/C (dose: 62.0 mg/kg/injection, schedule: Q01DX011 (ip), vehicle: carboxymethylcellulose (CMC)) was 77 % of control and the T/C (dose: 125.0 mg/kg/injection, schedule: Q01DX011 (ip), vehicle: carboxymethylcellulose (CMC)) is 89 % of control.
Regarding `NC(Cc1c[nH]c2ccc(N(CCCl)CCCl)cc12)C(=O)O` (stereo not given), the T/C was 37 % of control under setting [6]; 120 % of control under setting [7]; 47 % of control under setting [8]; 71 % of control (dose: 2.5 micrograms/kg/injection, schedule: Q01DX011 (ip), vehicle: carboxymethylcellulose (CMC)); 61 % of control (dose: 5.0 micrograms/kg/injection, schedule: Q01DX011 (ip), vehicle: carboxymethylcellulose (CMC)); 86 % of control (dose: 11.0 micrograms/kg/injection, schedule: Q01DX011 (ip), vehicle: carboxymethylcellulose (CMC)). Further, the T/C reads like this: (dose: 22.0 micrograms/kg/injection, schedule: Q01DX011 (ip), vehicle: carboxymethylcellulose (CMC)) 90 % of control; (dose: 45.0 micrograms/kg/injection, schedule: Q01DX011 (ip), vehicle: carboxymethylcellulose (CMC)) 52 % of control; (dose: 90.0 micrograms/kg/injection, schedule: Q01DX011 (ip), vehicle: carboxymethylcellulose (CMC)) 34 % of control; (dose: 180.0 micrograms/kg/injection, schedule: Q01DX011 (ip), vehicle: carboxymethylcellulose (CMC)) 40 % of control; (dose: 370.0 micrograms/kg/injection, schedule: Q01DX011 (ip), vehicle: carboxymethylcellulose (CMC)) 39 % of control.
Turning to `Cn1c(=O)c2[nH]c(CCCc3nc4c([nH]3)c(=O)n(C)c(=O)n4C)nc2n(C)c1=O`, the T/C was 101 % of control under setting [1], 94 % of control under setting [2] and 44 % of control under setting [3].
As to `CCCCCCCCCCCCn1c(C)nc2ccccc21`, the T/C under setting [7] was 114 % of control; the T/C (dose: 2.0 mg/kg/injection, schedule: Q01DX011 (ip), vehicle: carboxymethylcellulose (CMC)) is 75 % of control; the T/C under setting [9] was 97 % of control; the T/C under setting [10] was 76 % of control.
On to `C[C@]12C=CC(=O)C=C1CC[C@@H]1[C@@H]2[C@@H](O)C[C@@]2(C)[C@H]1CC[C@]2(O)C(=O)COC(=O)C1CCCC1`, for which the T/C reads like this: (dose: 0.12 mg/kg/injection, schedule: Q01DX011 (sc), vehicle: steriod suspending solution) 103 % of control; (dose: 0.25 mg/kg/injection, schedule: Q01DX011 (sc), vehicle: steriod suspending solution) 102 % of control; (dose: 0.5 mg/kg/injection, schedule: Q01DX011 (sc), vehicle: steriod suspending solution) 95 % of control; (dose: 3.0 mg/kg/injection, schedule: Q01DX011 (sc), vehicle: steriod suspending solution) 46 % of control; under setting [11], 47 % of control; (dose: 6.3 mg/kg/injection, schedule: Q01DX011 (sc), vehicle: steriod suspending solution) 38 % of control. Further, the T/C runs as follows: under setting [12], 33 % of control; (dose: 12.5 mg/kg/injection, schedule: Q01DX011 (sc), vehicle: steriod suspending solution) 25 % of control; (dose: 25.0 mg/kg/injection, schedule: Q01DX011 (sc), vehicle: steriod suspending solution) 10 % of control and 24 % of control; under setting [13], 8 % of control and 14 % of control; under setting [14], 7 % of control.
Take `Cn1c(=O)c2[nH]cnc2n(C)c1=O`: the T/C was 97 % of control (dose: 14.5 mg/kg/injection, schedule: Q01DX011 (ip), vehicle: carboxymethylcellulose (CMC)); 93 % of control (dose: 29.0 mg/kg/injection, schedule: Q01DX011 (ip), vehicle: carboxymethylcellulose (CMC)); 82 % of control (dose: 58.0 mg/kg/injection, schedule: Q01DX011 (ip), vehicle: carboxymethylcellulose (CMC)); 66 % of control (dose: 116.0 mg/kg/injection, schedule: Q01DX011 (ip), vehicle: carboxymethylcellulose (CMC)).
Regarding `CC(=O)[C@H]1CC[C@H]2[C@@H]3C[C@H](C)C4=CC(=O)CC[C@]4(C)[C@@]3(F)[C@@H](O)C[C@]12C`, the T/C reads like this: under setting [11], 163 % of control; (dose: 8.0 mg/kg/injection, schedule: Q01DX011 (sc), vehicle: steriod suspending solution) 162 % of control; under setting [12], 151 % of control; (dose: 16.0 mg/kg/injection, schedule: Q01DX011 (sc), vehicle: steriod suspending solution) 80 % of control; under setting [13], 66 % of control and 43 % of control; under setting [14], 22 % of control and 47 % of control. Under “dose: 200.0 mg/kg/injection, schedule: Q01DX011 (sc), vehicle: steriod suspending solution”, the T/C is 46 % of control.
On to `Nc1nc(F)nc2c1ncn2C1OC(CO)C(O)C1O` (stereo not given), for which the T/C (dose: 0.06 mg/kg/injection, schedule: Q01DX011 (ip), vehicle: saline) was 155 % of control; the T/C (dose: 0.12 mg/kg/injection, schedule: Q01DX011 (ip), vehicle: saline) was 120 % of control; the T/C under setting [6] is 225 % of control; the T/C under setting [8] was 203 % of control; the T/C (dose: 3.0 mg/kg/injection, schedule: Q01DX011 (ip), vehicle: saline) was 199 % of control.
Take `Nc1nc2n[nH]nc2c(=O)[nH]1`: the T/C by setting is: (dose: 11.12 mg/kg/injection, schedule: Q01DX011 (ip), vehicle: carboxymethylcellulose (CMC)) 158 % of control; (dose: 11.8 mg/kg/injection, schedule: Q01DX011 (ip), vehicle: other) 190 % of control; (dose: 22.7 mg/kg/injection, schedule: Q01DX011 (ip), vehicle: other) 189 % of control; (dose: 45.5 mg/kg/injection, schedule: Q01DX011 (ip), vehicle: other) 152 % of control; (dose: 89.0 mg/kg/injection, schedule: Q01DX011 (ip), vehicle: carboxymethylcellulose (CMC)) 44 % of control; (dose: 89.0 mg/kg/injection, schedule: Q01DX011 (ip), vehicle: other) 123 % of control.
`O=C(Nc1ccc(C2=NCCCN2)cc1)c1ccc(NC(=O)c2ccc(C3=NCCCN3)cc2)cc1`: the T/C under setting [9] is 49 % of control; the T/C (dose: 6.0 mg/kg/injection, schedule: Q01DX011 (ip), vehicle: carboxymethylcellulose (CMC)) is 9 % of control; the T/C under setting [10] is 1 % of control.
Turning to `O=CN(O)CC(=O)O`, the T/C under setting [4] was 154 % of control; the T/C under setting [5] is 196 % of control; the T/C (dose: 375.0 mg/kg/injection, schedule: Q01DX011 (ip), vehicle: saline) was 193 % of control.
